Experimental data taken from ChEMBL document CHEMBL1201862, “PubChem BioAssay data set” (2004).
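Exposure lasted 48 hours, with cells grown in 96-well plates and compounds tested at five concentrations. Abbreviation: GI50, concentration required for 50% inhibition of growth.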 Activity calls are given as the source filed them. Rule as the data show it: active = GI50 up to about 1.1 µM and inactive = higher.

Assays:
Assay in all cases: NCI tumour cell line growth inhibition, 48 h
ACHN = system: ACHN
EKVX = system: EKVX
HCC 2998 = system: HCC 2998
HOP-62 = system: HOP-62
Hs-578T = system: Hs-578T
IGROV-1 = system: IGROV-1
KM12 = system: KM12
LOX IMVI = system: LOX IMVI
MDA-MB-231 = system: MDA-MB-231
MDA-MB-435 = system: MDA-MB-435
NCI-H522 = system: NCI-H522
OVCAR-8 = system: OVCAR-8
RPMI-8226 = system: RPMI-8226
RXF 393 = system: RXF 393
SF-295 = system: SF-295
SK-MEL-28 = system: SK-MEL-28
T47D = system: T47D
U-251 = system: U-251
UACC-257 = system: UACC-257
UO-31 = system: UO-31

SMILES	GI50 (ACHN)	GI50 (EKVX)	GI50 (HCC 2998)	GI50 (HOP-62)	GI50 (Hs-578T)	GI50 (IGROV-1)	GI50 (KM12)	GI50 (LOX IMVI)	GI50 (MDA-MB-231)	GI50 (MDA-MB-435)	GI50 (NCI-H522)	GI50 (OVCAR-8)	GI50 (RPMI-8226)	GI50 (RXF 393)	GI50 (SF-295)	GI50 (SK-MEL-28)	GI50 (T47D)	GI50 (U-251)	GI50 (UACC-257)	GI50 (UO-31)
CN(C)c1cccc(F)c1C(=O)NC(=O)Nc1ccc(Cl)cc1	4.79 µM (inactive)	4.29 µM (inactive)	1.4 µM (inactive)	5.2 µM (inactive)	2.21 µM (inactive)	3.78 µM (inactive)	2.92 µM (inactive)	3.01 µM (inactive)	14.8 µM (inactive)	0.118 µM (active)	2.27 µM (inactive)	5.19 µM (inactive)	1.81 µM (inactive)	3.67 µM (inactive)	1.55 µM (inactive)	17.6 µM (inactive)	4.86 µM (inactive)	3.69 µM (inactive)	3.42 µM (inactive)	5.87 µM (inactive)
C[S+]([O-])c1cc(=O)c2ccccc2s1 (stereo not given)	1.91 µM (inactive)	5.71 µM (inactive)	7.64 µM (inactive)	27 µM (inactive)	25.4 µM (inactive)	17.5 µM (inactive)	12.6 µM (inactive)	3.78 µM (inactive)	12.6 µM (inactive)	5.14 µM (inactive)	1.13 µM (inactive)	3.6 µM (inactive)	2.9 µM (inactive)	2.94 µM (inactive)	17 µM (inactive)	4.2 µM (inactive)	2.52 µM (inactive)	12.8 µM (inactive)	3.4 µM (inactive)	11.9 µM (inactive)
COc1cc2c3cc1Oc1c(OC)c(OC)cc4c1C(=NCC4)Cc1ccc(cc1)Oc1cc(ccc1O)C[C@H]3N(C)CC2	23.1 µM (inactive)	23.2 µM (inactive)	13.4 µM (inactive)	22.3 µM (inactive)	17.6 µM (inactive)	25.4 µM (inactive)	15 µM (inactive)	12.6 µM (inactive)	12.9 µM (inactive)	18.5 µM (inactive)	10.7 µM (inactive)	16 µM (inactive)	16.3 µM (inactive)	10 µM (inactive)	19.4 µM (inactive)	16.7 µM (inactive)	21 µM (inactive)	17.4 µM (inactive)	16 µM (inactive)	–
COC1C=C(NCC2(CO)CCC2)N=C(N)N1 (stereo not given)	–	> 100 µM (inactive)	> 100 µM (inactive)	> 100 µM (inactive)	> 100 µM (inactive)	> 100 µM (inactive)	> 100 µM (inactive)	> 100 µM (inactive)	56.6 µM (inactive)	> 100 µM (inactive)	> 100 µM (inactive)	> 100 µM (inactive)	> 100 µM (inactive)	> 100 µM (inactive)	> 100 µM (inactive)	> 100 µM (inactive)	> 100 µM (inactive)	> 100 µM (inactive)	> 100 µM (inactive)	> 100 µM (inactive)
Cc1ccccc1-n1c(=O)c2ncn(C3CCCO3)c2n(-c2ccccc2C)c1=S (stereo not given)	> 100 µM (inactive)	> 100 µM (inactive)	> 100 µM (inactive)	> 100 µM (inactive)	> 100 µM (inactive)	> 100 µM (inactive)	> 100 µM (inactive)	> 100 µM (inactive)	> 100 µM (inactive)	> 100 µM (inactive)	> 100 µM (inactive)	> 100 µM (inactive)	> 100 µM (inactive)	> 100 µM (inactive)	> 100 µM (inactive)	–	> 100 µM (inactive)	–	> 100 µM (inactive)	> 100 µM (inactive)
N#Cc1nc(-c2ccc(-c3nc(C#N)c(N)o3)cc2)oc1N	> 10 µM (inactive)	> 10 µM (inactive)	> 10 µM (inactive)	> 10 µM (inactive)	> 10 µM (inactive)	> 10 µM (inactive)	> 10 µM (inactive)	> 10 µM (inactive)	> 10 µM (inactive)	> 10 µM (inactive)	> 10 µM (inactive)	> 10 µM (inactive)	> 10 µM (inactive)	> 10 µM (inactive)	> 10 µM (inactive)	> 10 µM (inactive)	> 10 µM (inactive)	–	> 10 µM (inactive)	> 10 µM (inactive)
COc1ccc([C@H]2C=C(c3cc(F)c(Cl)cc3Cl)N=c3s/c(=C\c4ccc(-c5ccc(Cl)cc5Cl)o4)c(=O)n32)cc1	> 100 µM (inactive)	–	20.1 µM (inactive)	18.8 µM (inactive)	34.8 µM (inactive)	30.3 µM (inactive)	60.1 µM (inactive)	38 µM (inactive)	25.5 µM (inactive)	30.5 µM (inactive)	52.2 µM (inactive)	37.8 µM (inactive)	32.5 µM (inactive)	39.6 µM (inactive)	43.2 µM (inactive)	> 100 µM (inactive)	19.6 µM (inactive)	34.8 µM (inactive)	30 µM (inactive)	32.9 µM (inactive)
COc1cccc(C(=O)C(O)c2cccc(OC)c2OC)c1OC (stereo not given)	> 100 µM (inactive)	> 100 µM (inactive)	> 100 µM (inactive)	> 100 µM (inactive)	> 100 µM (inactive)	> 100 µM (inactive)	> 100 µM (inactive)	> 100 µM (inactive)	> 100 µM (inactive)	> 100 µM (inactive)	> 100 µM (inactive)	> 100 µM (inactive)	> 100 µM (inactive)	> 100 µM (inactive)	> 100 µM (inactive)	> 100 µM (inactive)	> 100 µM (inactive)	> 100 µM (inactive)	> 100 µM (inactive)	> 100 µM (inactive)
O=P12N(CCN1c1ccccc1)CCN2c1ccccc1	> 100 µM (inactive)	> 100 µM (inactive)	> 100 µM (inactive)	> 100 µM (inactive)	> 100 µM (inactive)	> 100 µM (inactive)	> 100 µM (inactive)	> 100 µM (inactive)	> 100 µM (inactive)	> 100 µM (inactive)	84.1 µM (inactive)	> 100 µM (inactive)	> 100 µM (inactive)	> 100 µM (inactive)	> 100 µM (inactive)	> 100 µM (inactive)	> 100 µM (inactive)	> 100 µM (inactive)	> 100 µM (inactive)	> 100 µM (inactive)
CN(C)CC1CCCc2ccccc2C1=O (stereo not given)	1.75 µM (inactive)	1.85 µM (inactive)	6.31 µM (inactive)	16.6 µM (inactive)	3.93 µM (inactive)	2.06 µM (inactive)	1.98 µM (inactive)	2.16 µM (inactive)	5.07 µM (inactive)	0.897 µM (active)	0.16 µM (active)	2.13 µM (inactive)	0.0267 µM (active)	6.55 µM (inactive)	17.3 µM (inactive)	6.03 µM (inactive)	7.73 µM (inactive)	1.6 µM (inactive)	6.1 µM (inactive)	1.9 µM (inactive)
CCN(CC)CCSc1nc2c(c(=N)n1-c1ccccc1)c(=S)n(-c1ccccc1)c(=S)n2-c1ccccc1	1.74 µM (inactive)	2.54 µM (inactive)	1.58 µM (inactive)	2.85 µM (inactive)	2.58 µM (inactive)	1.64 µM (inactive)	5.69 µM (inactive)	1.46 µM (inactive)	1.83 µM (inactive)	1.85 µM (inactive)	0.843 µM (active)	1.71 µM (inactive)	0.275 µM (active)	1.36 µM (inactive)	12.8 µM (inactive)	3.62 µM (inactive)	2.61 µM (inactive)	2.37 µM (inactive)	1.72 µM (inactive)	–
CCOC(=O)[C@@H]1ON2O[C@@H](OC3CCCC3(c3ccccc3)c3ccccc3)C[C@H]3OC(=O)[C@@H]1C32 (stereo not given in full)	19.5 µM (inactive)	> 100 µM (inactive)	41.8 µM (inactive)	31 µM (inactive)	31.4 µM (inactive)	33.8 µM (inactive)	15.6 µM (inactive)	37.8 µM (inactive)	25.2 µM (inactive)	16.8 µM (inactive)	33.1 µM (inactive)	32.8 µM (inactive)	35.6 µM (inactive)	17.1 µM (inactive)	> 100 µM (inactive)	–	22.3 µM (inactive)	56.4 µM (inactive)	21.4 µM (inactive)	19.1 µM (inactive)
OCc1ccn2c1[C@@H](O)CC2	> 100 µM (inactive)	> 100 µM (inactive)	> 100 µM (inactive)	> 100 µM (inactive)	> 100 µM (inactive)	> 100 µM (inactive)	> 100 µM (inactive)	> 100 µM (inactive)	> 100 µM (inactive)	> 100 µM (inactive)	1.55 µM (inactive)	> 100 µM (inactive)	> 100 µM (inactive)	> 100 µM (inactive)	> 100 µM (inactive)	> 100 µM (inactive)	> 100 µM (inactive)	> 100 µM (inactive)	> 100 µM (inactive)	–
Nc1c(S(=O)(=O)O)cc(Nc2cccc(S(=O)(=O)/C=C/S(=O)(=O)O)c2)c2c1C(=O)c1ccccc1C2=O	> 100 µM (inactive)	> 100 µM (inactive)	> 100 µM (inactive)	> 100 µM (inactive)	73.3 µM (inactive)	> 100 µM (inactive)	> 100 µM (inactive)	> 100 µM (inactive)	> 100 µM (inactive)	> 100 µM (inactive)	> 100 µM (inactive)	> 100 µM (inactive)	> 100 µM (inactive)	14.2 µM (inactive)	> 100 µM (inactive)	> 100 µM (inactive)	> 100 µM (inactive)	> 100 µM (inactive)	> 100 µM (inactive)	–
